Test results taken from publication PMC7525662, “Preclinical dosimetry models and the prediction of clinical doses of novel positron emission tomography radiotracers” (Scientific Reports, 2020).
Marks after values point to notes of the source that are not given here. Each block holds one compound with its values, some of them ahead of it.

Assays:
[1] = OLINDA/EXM predicted clinical doses: adult male phantom, normalised τ, FBP; design: species or system Sprague–Dawley rats; conditions: rat, in vivo
Experimental: (§1) PET studies were reconstructed using filtered-back projection (FBP) and Mediso’s iterative Tera-Tomo 3D reconstruction algorithm with the following settings: 4 iterations, 6 subsets, full detector model, normal regularization, spike filter on, voxel size 0.4 mm and 400‒600 keV energy window. PET data were corrected for randoms, scatter and attenuation. Time-activity curves for each source organ, whole-body and remainder of the body were plotted. […] Residence times (τ) were determined for each radiotracer in source organs, whole-body and remaining (any activity assigned to the whole-body but not assigned to a source organ). Each preclinical source organ’s τ was determined by calculating the area under its respective time-activity curve (activity normalised to the percentage maximum injected dose as a function of time) using the trapezoid method. […] From each individual animal, eight dosimetry models were constructed from all possible combinations of image reconstruction method (FBP or iterative), τ (non-normalised or normalised to human organ masses), and sex of phantom (male or female).

[2] = OLINDA/EXM predicted clinical doses: adult female phantom, non-normalised τ, FBP; design: species or system Sprague–Dawley rats; conditions: rat, in vivo
Experimental: as §1, with “female). Supplementary table 6. Predicted clinical absorbed organ doses and whole-body effective doses of PET radiotracers using non-normalised (preclinical) adult female source organ residence times from filtered backprojection reconstructions.” for “female).”

[3] = Whole-body PET biodistribution in rats; type: in vivo, Sprague–Dawley rats; conditions: PET images, i.v. bolus, 240 min
Experimental: On the day of imaging, rats were anaesthetised with 2‒2.5% isoflurane (50/50 oxygen/nitrous oxide, 1 L/min), then transferred to the preclinical PET/CT scanner (nanoPET/CT, Mediso, Hungary) and placed in a supine position. A CT scan (semi-circular full trajectory, maximum field of view, 480 projections, 50 kVp, 300 ms and 1:4 binning) was acquired for attenuation correction.
Immediately after radiotracer administration, a 240 min emission scan using 4 beds (50% overlap) was obtained using 3-dimensional 1:5 mode and re-binned as follows: 7 × 1 min, 2 × 5 min and 4 × 10 min. Throughout the PET/CT scanning session, animal temperature and respiration rate were monitored and controlled.
PET studies were reconstructed using filtered-back projection (FBP) and Mediso’s iterative Tera-Tomo 3D reconstruction algorithm with the following settings: 4 iterations, 6 subsets, full detector model, normal regularization, spike filter on, voxel size 0.4 mm and 400‒600 keV energy window. PET data were corrected for randoms, scatter and attenuation.
Reconstructed whole-body PET/CT images were imported into PMOD 3.8 software (PMOD Technologies, Switzerland) and static regions-of-interest (ROIs) were selected in approximately every third axial slice of source organs in animal subjects, which included the kidneys (left and right), urinary bladder, lungs (right and left), heart, brain, liver and intestine. […]

Effective Dose (mSv/MBq), Average ± SD [1]: 2.18E-02 mSv/MBq
Estimated Absorbed Dose of Organ, Average: Adrenals [1]: 1.10E-02 mGy/MBq
Estimated Absorbed Dose of Organ, Average: Brain [1]: 3.17E-03 mGy/MBq
Estimated Absorbed Dose of Organ, Average: Breasts [1]: 8.04E-03 mGy/MBq
Estimated Absorbed Dose of Organ, Average: Gallbladder Wall [1]: 1.15E-02 mGy/MBq
Estimated Absorbed Dose of Organ, Average: Heart Wall [1]: 1.15E-02 mGy/MBq
Estimated Absorbed Dose of Organ, Average: Kidneys [1]: 1.64E-02 § mGy/MBq
Estimated Absorbed Dose of Organ, Average: LLI Wall [1]: 5.79E-02 ‡ mGy/MBq
Estimated Absorbed Dose of Organ, Average: Liver [1]: 6.81E-03 mGy/MBq
Estimated Absorbed Dose of Organ, Average: Lungs [1]: 8.79E-03 mGy/MBq
Estimated Absorbed Dose of Organ, Average: Muscle [1]: 1.05E-02 mGy/MBq
Estimated Absorbed Dose of Organ, Average: Osteogenic Cells [1]: 1.53E-02 mGy/MBq
Estimated Absorbed Dose of Organ, Average: Pancreas [1]: 1.17E-02 mGy/MBq
Estimated Absorbed Dose of Organ, Average: Red Marrow [1]: 9.94E-03 mGy/MBq
Estimated Absorbed Dose of Organ, Average: Skin [1]: 7.88E-03 mGy/MBq
Estimated Absorbed Dose of Organ, Average: Small Intestine [1]: 1.40E-02 mGy/MBq
Estimated Absorbed Dose of Organ, Average: Spleen [1]: 1.09E-02 mGy/MBq
Estimated Absorbed Dose of Organ, Average: Stomach Wall [1]: 1.13E-02 mGy/MBq
Estimated Absorbed Dose of Organ, Average: Testes [1]: 1.18E-02 mGy/MBq
Estimated Absorbed Dose of Organ, Average: Thymus [1]: 9.99E-03 mGy/MBq
Estimated Absorbed Dose of Organ, Average: Thyroid [1]: 9.88E-03 mGy/MBq
Estimated Absorbed Dose of Organ, Average: Total Body [1]: 1.05E-02 mGy/MBq
Estimated Absorbed Dose of Organ, Average: ULI Wall [1]: 1.28E-02 mGy/MBq
Estimated Absorbed Dose of Organ, Average: Urinary Bladder Wall [1]: 1.16E-01 † mGy/MBq
Effective Dose (mSv/MBq), Average ± SD [2]: 6.49E-02 mSv/MBq
Estimated Absorbed Dose of Organ, Average: Adrenals [2]: 1.46E-02 mGy/MBq
Estimated Absorbed Dose of Organ, Average: Brain [2]: 3.20E-03 mGy/MBq
Estimated Absorbed Dose of Organ, Average: Breasts [2]: 1.01E-02 mGy/MBq
Estimated Absorbed Dose of Organ, Average: Gallbladder Wall [2]: 1.49E-02 mGy/MBq
Estimated Absorbed Dose of Organ, Average: Heart Wall [2]: 9.41E-03 mGy/MBq
Estimated Absorbed Dose of Organ, Average: Kidneys [2]: 2.70E-02 § mGy/MBq
Estimated Absorbed Dose of Organ, Average: LLI Wall [2]: 1.62E-01 ‡ mGy/MBq
Estimated Absorbed Dose of Organ, Average: Liver [2]: 9.39E-03 mGy/MBq
Estimated Absorbed Dose of Organ, Average: Lungs [2]: 7.79E-03 mGy/MBq
Estimated Absorbed Dose of Organ, Average: Muscle [2]: 1.61E-02 mGy/MBq
Estimated Absorbed Dose of Organ, Average: Osteogenic Cells [2]: 2.13E-02 mGy/MBq
Estimated Absorbed Dose of Organ, Average: Ovaries [2]: 3.85E-02 mGy/MBq
Estimated Absorbed Dose of Organ, Average: Pancreas [2]: 1.53E-02 mGy/MBq
Estimated Absorbed Dose of Organ, Average: Red Marrow [2]: 1.52E-02 mGy/MBq
Estimated Absorbed Dose of Organ, Average: Skin [2]: 1.08E-02 mGy/MBq
Estimated Absorbed Dose of Organ, Average: Small Intestine [2]: 2.41E-02 mGy/MBq
Estimated Absorbed Dose of Organ, Average: Spleen [2]: 1.45E-02 mGy/MBq
Estimated Absorbed Dose of Organ, Average: Stomach Wall [2]: 1.50E-02 mGy/MBq
Estimated Absorbed Dose of Organ, Average: Thymus [2]: 1.25E-02 mGy/MBq
Estimated Absorbed Dose of Organ, Average: Thyroid [2]: 1.15E-02 mGy/MBq
Estimated Absorbed Dose of Organ, Average: Total Body [2]: 1.63E-02 mGy/MBq
Estimated Absorbed Dose of Organ, Average: ULI Wall [2]: 2.11E-02 mGy/MBq
Estimated Absorbed Dose of Organ, Average: Urinary Bladder Wall [2]: 6.07E-01 † mGy/MBq
Estimated Absorbed Dose of Organ, Average: Uterus [2]: 4.81E-02 mGy/MBq
Compound: NOTA-RGDfK [existing Al^18F-labelled NOTA-RGDfK peptide PET radiotracer; precursor NOTA-RGDfK (1)]

Effective Dose (mSv/MBq), Average ± SD [1]: 2.62E-02 mSv/MBq
Estimated Absorbed Dose of Organ, Average: Adrenals [1]: 1.23E-02 mGy/MBq
Estimated Absorbed Dose of Organ, Average: Brain [1]: 8.73E-03 mGy/MBq
Estimated Absorbed Dose of Organ, Average: Breasts [1]: 9.14E-03 mGy/MBq
Estimated Absorbed Dose of Organ, Average: Gallbladder Wall [1]: 1.25E-02 mGy/MBq
Estimated Absorbed Dose of Organ, Average: Heart Wall [1]: 3.82E-02 mGy/MBq
Estimated Absorbed Dose of Organ, Average: Kidneys [1]: 1.43E-02 § mGy/MBq
Estimated Absorbed Dose of Organ, Average: Liver [1]: 7.98E-03 mGy/MBq
Estimated Absorbed Dose of Organ, Average: Lungs [1]: 1.48E-02 mGy/MBq
Estimated Absorbed Dose of Organ, Average: Muscle [1]: 1.13E-02 mGy/MBq
Estimated Absorbed Dose of Organ, Average: Osteogenic Cells [1]: 1.67E-02 mGy/MBq
Estimated Absorbed Dose of Organ, Average: Pancreas [1]: 1.31E-02 mGy/MBq
Estimated Absorbed Dose of Organ, Average: Red Marrow [1]: 1.11E-02 mGy/MBq
Estimated Absorbed Dose of Organ, Average: Skin [1]: 8.54E-03 mGy/MBq
Estimated Absorbed Dose of Organ, Average: Small Intestine [1]: 1.55E-02 mGy/MBq
Estimated Absorbed Dose of Organ, Average: Spleen [1]: 1.20E-02 mGy/MBq
Estimated Absorbed Dose of Organ, Average: Stomach Wall [1]: 1.26E-02 mGy/MBq
Estimated Absorbed Dose of Organ, Average: Testes [1]: 1.22E-02 mGy/MBq
Estimated Absorbed Dose of Organ, Average: Thymus [1]: 1.17E-02 mGy/MBq
Estimated Absorbed Dose of Organ, Average: Thyroid [1]: 1.09E-02 ± 1.11E-03 mGy/MBq
Estimated Absorbed Dose of Organ, Average: Total Body [1]: 1.17E-02 mGy/MBq
Estimated Absorbed Dose of Organ, Average: ULI Wall [1]: 1.39E-02 mGy/MBq
Estimated Absorbed Dose of Organ, Average: Urinary Bladder Wall [1]: 8.88E-02 ‡ mGy/MBq
Effective Dose (mSv/MBq), Average ± SD [2]: 7.08E-02 mSv/MBq
Estimated Absorbed Dose of Organ, Average: Adrenals [2]: 1.56E-02 mGy/MBq
Estimated Absorbed Dose of Organ, Average: Brain [2]: 5.39E-03 mGy/MBq
Estimated Absorbed Dose of Organ, Average: Breasts [2]: 1.10E-02 mGy/MBq
Estimated Absorbed Dose of Organ, Average: Gallbladder Wall [2]: 1.59E-02 mGy/MBq
Estimated Absorbed Dose of Organ, Average: Heart Wall [2]: 1.95E-02 mGy/MBq
Estimated Absorbed Dose of Organ, Average: Kidneys [2]: 2.28E-02 § mGy/MBq
Estimated Absorbed Dose of Organ, Average: LLI Wall [2]: 2.63E-01 † mGy/MBq
Estimated Absorbed Dose of Organ, Average: Liver [2]: 1.05E-02 mGy/MBq
Estimated Absorbed Dose of Organ, Average: Lungs [2]: 1.03E-02 mGy/MBq
Estimated Absorbed Dose of Organ, Average: Muscle [2]: 1.67E-02 mGy/MBq
Estimated Absorbed Dose of Organ, Average: Osteogenic Cells [2]: 2.29E-02 mGy/MBq
Estimated Absorbed Dose of Organ, Average: Ovaries [2]: 4.29E-02 mGy/MBq
Estimated Absorbed Dose of Organ, Average: Pancreas [2]: 1.65E-02 mGy/MBq
Estimated Absorbed Dose of Organ, Average: Red Marrow [2]: 1.64E-02 mGy/MBq
Estimated Absorbed Dose of Organ, Average: Skin [2]: 1.14E-02 mGy/MBq
Estimated Absorbed Dose of Organ, Average: Small Intestine [2]: 2.68E-02 mGy/MBq
Estimated Absorbed Dose of Organ, Average: Spleen [2]: 1.55E-02 mGy/MBq
Estimated Absorbed Dose of Organ, Average: Stomach Wall [2]: 1.66E-02 mGy/MBq
Estimated Absorbed Dose of Organ, Average: Thymus [2]: 1.38E-02 mGy/MBq
Estimated Absorbed Dose of Organ, Average: Thyroid [2]: 1.24E-02 mGy/MBq
Estimated Absorbed Dose of Organ, Average: Total Body [2]: 1.72E-02 mGy/MBq
Estimated Absorbed Dose of Organ, Average: ULI Wall [2]: 2.24E-02 mGy/MBq
Estimated Absorbed Dose of Organ, Average: Urinary Bladder Wall [2]: 4.48E-01 ‡ mGy/MBq
Estimated Absorbed Dose of Organ, Average: Uterus [2]: 4.34E-02 mGy/MBq
Compound: O=C[C@H]([18F])[C@@H](O)[C@H](O)[C@H](O)CO [FDG, 2-deoxy-2-[^18F]fluoro-D-glucose]
organs with highest uptake [3]: brain, heart, kidneys and urinary bladder
